Tested on: Plasmodium berghei
Test: Luciferase/luciferin-expressing antifolate-resistant parasites were used to infect a culture of HepG2 cells that were pre-incubated with compounds. Infected hepatocytes emit light due to the luciferase reaction. Assay results are presented as the percent inhibition of light emission compared to control. […]
Format: functional
Settings: sporozoite; for IC90: read-out: LUCIFERASE INFECTION ASSAY - IC90
[1] = read-out: LUCIFERASE INFECTION ASSAY - IC50

SMILES | IC90 [µM] | other results
COc1ccc(C(OC(=O)c2ccccc2)c2nccc3ccccc23)cc1 (stereo not given) | > 8.93 | IC50 (HEPG2TOX_HILL_SLOPE 1.92, HEPG2TOX_R_SQUARED 0.889, PBLUC_HILL_SLOPE 0.417, PBLUC_R_SQUARED 0.183, read-out: LUCIFERASE INFECTION ASSAY - IC50): 5.78 µM
Cc1cc(C)c(NC(=NCc2ccc(Cl)cc2)Nc2c(C)cc(C)cc2C)c(C)c1 | > 10 | IC50 (PBLUC_HILL_SLOPE 2.28, PBLUC_R_SQUARED 0.76, read-out: LUCIFERASE INFECTION ASSAY - IC50): 5.92 µM
COc1cc(C(=O)Nc2nc3ccccc3[nH]2)ccc1C | 8.73 | IC50 [1]: 5.35 µM
CC(=O)NCc1ccc(-c2csc(NC(=O)c3cc4cnn(C(C)C)c4nc3C)n2)s1 | > 10 | IC50 (HEPG2TOX_HILL_SLOPE 7.15, HEPG2TOX_R_SQUARED 0.462, PBLUC_HILL_SLOPE 31.4, PBLUC_R_SQUARED 0.13, read-out: LUCIFERASE INFECTION ASSAY - IC50): 9.38 µM
Cc1cc(NC(=O)CCc2ccc(C)c(Cl)c2)n(C)n1 | > 10 | IC50 [1]: > 10 µM
O=C(NCC1(c2ccccc2)CCC1)c1ccc(Cn2nnc3ccccc32)cc1 | > 10 | IC50 [1]: > 10 µM
FC(F)(F)c1cccc(-c2noc(CCc3nc4ccccc4[nH]3)n2)c1 | 7.22 | IC50 (PBLUC_HILL_SLOPE 3.19, PBLUC_R_SQUARED 0.657, read-out: LUCIFERASE INFECTION ASSAY - IC50): 3.63 µM
FC(F)(F)c1cccc(-c2ccc3ncc(-c4cccnc4)n3n2)c1 | 2.23 | IC50 (HEPG2TOX_HILL_SLOPE 12.4, HEPG2TOX_R_SQUARED 0.643, PBLUC_HILL_SLOPE 4.46, PBLUC_R_SQUARED 0.619, read-out: LUCIFERASE INFECTION ASSAY - IC50): 1.36 µM
CC(C)(C)c1ccc(C(=O)Nc2ccc(C(F)(F)F)cc2)s1 | 4.36 | IC50 [1]: 0.561 µM
COc1ccc(Nc2nccc3[nH]c(-c4cccc(F)c4)cc23)cc1O | > 10 | IC50 (PBLUC_HILL_SLOPE 4.51, PBLUC_R_SQUARED 0.135, read-out: LUCIFERASE INFECTION ASSAY - IC50): 9.39 µM
CN(C)c1cccc(-c2cnc3cnc(-c4cccc(C(=O)NCCO)c4)cn23)c1 | > 8.22 | IC50 (PBLUC_HILL_SLOPE 1.98, PBLUC_R_SQUARED 0.622, read-out: LUCIFERASE INFECTION ASSAY - IC50): 5.11 µM
CC(=O)N1CCN(S(=O)(=O)c2ccc(C(=O)NCCCCCCC(C)C)cc2)CC1 | > 10 | IC50 [1]: > 10 µM
CCN(CC)S(=O)(=O)c1cc(C(=O)Nc2nc3ccccc3[nH]2)n(C)c1 | 9.54 | IC50 (HEPG2TOX_HILL_SLOPE 9.29, HEPG2TOX_R_SQUARED 0.829, PBLUC_HILL_SLOPE 13.1, PBLUC_R_SQUARED 0.63, read-out: LUCIFERASE INFECTION ASSAY - IC50): 8.06 µM
O=C(NCc1ccccc1)/C(=C/c1ccc(OCc2ccccc2)cc1)c1nc2ccccc2[nH]1 | 1.26 | IC50 (FFLUC_HILL_SLOPE 9.07, FFLUC_R_SQUARED 0.413, PBLUC_HILL_SLOPE 2.18, PBLUC_R_SQUARED 0.79, read-out: LUCIFERASE INFECTION ASSAY - IC50): 0.462 µM
CC(C)NC(=O)c1c(NC(=O)c2cc(F)c(Cl)cc2F)nc2ccccn12 | 1.42 | IC50 (HEPG2TOX_HILL_SLOPE 0.89, HEPG2TOX_R_SQUARED 0.947, PBLUC_HILL_SLOPE 3.47, PBLUC_R_SQUARED 0.71, read-out: LUCIFERASE INFECTION ASSAY - IC50): 0.755 µM
O=C1C=C/C(=N\Nc2ccc3ncsc3c2)c2cccnc21 | > 10 | IC50 (HEPG2TOX_HILL_SLOPE 2.28, HEPG2TOX_R_SQUARED 0.978, PBLUC_HILL_SLOPE 13.8, PBLUC_R_SQUARED 0.454, read-out: LUCIFERASE INFECTION ASSAY - IC50): 8.95 µM
COc1ccc(C(=O)/C(=C\c2ccc([N+](=O)[O-])cc2)c2nc3ccccc3[nH]2)cc1 | 9.32 | IC50 (FFLUC_HILL_SLOPE 7.19, FFLUC_R_SQUARED 0.76, HEPG2TOX_HILL_SLOPE 6.54, HEPG2TOX_R_SQUARED 0.945, PBLUC_HILL_SLOPE 13.7, PBLUC_R_SQUARED 0.214, read-out: LUCIFERASE INFECTION ASSAY - IC50): 7.93 µM
O=C(COC(=O)c1cccnc1Cl)NCCc1ccc(F)cc1 | > 10 | IC50 [1]: > 10 µM
O=C(/C=C/c1ccccc1)Nc1ccc(C23CC4CC(CC(O)(C4)C2)C3)cc1 | 9.39 | IC50 (PBLUC_HILL_SLOPE 1.46, PBLUC_R_SQUARED 0.646, read-out: LUCIFERASE INFECTION ASSAY - IC50): 2.09 µM
COc1ccc(OC)c(CN2CCN(c3nn4cc(-c5ccccc5)nc4s3)CC2)c1 | > 10 | IC50 (PBLUC_HILL_SLOPE 9.65, 2.13, PBLUC_R_SQUARED 0.339, 0.240, read-out: LUCIFERASE INFECTION ASSAY - IC50): 6.69 µM

SMILES | IC90 [µM] | other results
O=C(Cc1cccs1)NCC(c1ccccc1Cl)c1c[nH]c2ccccc12 (stereo not given) | 9.35 | IC50 (FFLUC_HILL_SLOPE 3.31, FFLUC_R_SQUARED 0.784, PBLUC_HILL_SLOPE 3.75, PBLUC_R_SQUARED 0.47, read-out: LUCIFERASE INFECTION ASSAY - IC50): 5.2 µM
CNc1cc(C(C)C)nc2c(-c3ccccc3)cnn12 | > 12.4 | IC50 (PBLUC_HILL_SLOPE 1.1, PBLUC_R_SQUARED 0.428, read-out: LUCIFERASE INFECTION ASSAY - IC50): 9.54 µM
CSc1sc(C(=O)NNC(=O)Nc2ccccc2)c2c1C=CCC2 | > 9.18 | IC50 (FFLUC_HILL_SLOPE 1.34, FFLUC_R_SQUARED 0.714, read-out: LUCIFERASE INFECTION ASSAY - IC50): > 9.18 µM
COc1cc(-c2nc3ccc(NC(=O)Nc4ccc(C)cc4)cn3n2)cc(OC)c1OC | 2.87 | IC50 (HEPG2TOX_HILL_SLOPE 3.16, HEPG2TOX_R_SQUARED 0.688, PBLUC_HILL_SLOPE 3.03, PBLUC_R_SQUARED 0.446, read-out: LUCIFERASE INFECTION ASSAY - IC50): 1.39 µM
NC(c1csc(NC(=O)Nc2cccc3ccccc23)n1)C1CCCCC1 (stereo not given) | > 8.67 | IC50 [1]: > 8.67 µM
CN(Cc1ccccc1NC(=O)c1ccc2c(c1)OCC(=O)N2)C1CCCCC1 | > 10 | IC50 (PBLUC_HILL_SLOPE 10.4, PBLUC_R_SQUARED 0.15, read-out: LUCIFERASE INFECTION ASSAY - IC50): 9.56 µM
Cc1c(C)c(C)c(S(=O)(=O)N2CCN(C(C)C(=O)NC3CC3)CC2)c(C)c1C (stereo not given) | 9.56 | IC50 (PBLUC_HILL_SLOPE 4.98, PBLUC_R_SQUARED 0.411, read-out: LUCIFERASE INFECTION ASSAY - IC50): 6.15 µM
COC(=O)c1cc(NC(=O)C(C)(C)Oc2ccc(Cl)cc2)ccc1F | > 10 | IC50 (PBLUC_HILL_SLOPE 3.63, PBLUC_R_SQUARED 0.0477, read-out: LUCIFERASE INFECTION ASSAY - IC50): > 10 µM
O=C1C=CC(=O)N1c1cccc(Cl)c1Cl | > 13.6 | IC50 (FFLUC_HILL_SLOPE 90.3, FFLUC_R_SQUARED 0.368, read-out: LUCIFERASE INFECTION ASSAY - IC50): > 13.6 µM
Clc1ccc(-c2nc3ncc(Br)cc3[nH]2)cc1 | 3.76 | IC50 (FFLUC_HILL_SLOPE 1.95, FFLUC_R_SQUARED 0.684, PBLUC_HILL_SLOPE 3.28, PBLUC_R_SQUARED 0.422, read-out: LUCIFERASE INFECTION ASSAY - IC50): 1.92 µM
CCN(CC(=O)Nc1ccc2c(c1)OCCO2)C(=O)CCCc1nc2ccccc2s1 | > 10 | IC50 [1]: > 10 µM
Cc1cc(C)c(S(=O)(=O)N2CCC(C(=O)N3CCn4c3nc3ccccc34)CC2)c(C)c1 | > 10 | IC50 (PBLUC_HILL_SLOPE 1.44, PBLUC_R_SQUARED 0.637, read-out: LUCIFERASE INFECTION ASSAY - IC50): 3.45 µM
O=C(Nc1ccccc1C(=O)Nc1nnc(C(F)(F)F)s1)c1ccccc1Cl | 2.71 | IC50 (HEPG2TOX_HILL_SLOPE 2.99, HEPG2TOX_R_SQUARED 0.762, PBLUC_HILL_SLOPE 9.09, PBLUC_R_SQUARED 0.594, read-out: LUCIFERASE INFECTION ASSAY - IC50): 2.13 µM
Cn1c[n+](C2=C(NS(=O)(=O)c3ccc([N+](=O)[O-])cc3)C(=O)c3ccccc3C2=O)c2ccccc21 | 5.03 | IC50 [1]: 2.53 µM
CNC(=O)c1cccc(-c2ccc3ncc(-c4cccc(C(F)(F)F)c4)n3n2)c1 | 2.95 | IC50 (HEPG2TOX_HILL_SLOPE 1.58, HEPG2TOX_R_SQUARED 0.903, PBLUC_HILL_SLOPE 3.01, PBLUC_R_SQUARED 0.663, read-out: LUCIFERASE INFECTION ASSAY - IC50): 1.42 µM
O=C(NNC(=O)c1cnc2ccccc2n1)c1ccccc1 | 9.09 | IC50 (HEPG2TOX_HILL_SLOPE 2.59, HEPG2TOX_R_SQUARED 0.855, PBLUC_HILL_SLOPE 4.42, PBLUC_R_SQUARED 0.625, read-out: LUCIFERASE INFECTION ASSAY - IC50): 5.53 µM
O=C(Nc1nc2ccccc2[nH]1)c1ccoc1 | > 10 | IC50 (HEPG2TOX_HILL_SLOPE 2.41, HEPG2TOX_R_SQUARED 0.931, read-out: LUCIFERASE INFECTION ASSAY - IC50): > 10 µM
Clc1ccc(CN=C(Nc2ccccc2)NC2CCCCC2)cc1 | 9.45 | IC50 (PBLUC_HILL_SLOPE 18.9, PBLUC_R_SQUARED 0.472, read-out: LUCIFERASE INFECTION ASSAY - IC50): 8.42 µM
CC(=O)Nc1cccc(-c2ccnc3c2CC(C(=O)NCc2ccco2)O3)c1 (stereo not given) | 6.23 | IC50 (FFLUC_HILL_SLOPE 0.324, FFLUC_R_SQUARED 0.726, HEPG2TOX_HILL_SLOPE 3.12, HEPG2TOX_R_SQUARED 0.86, PBLUC_HILL_SLOPE 2.84, PBLUC_R_SQUARED 0.407, read-out: LUCIFERASE INFECTION ASSAY - IC50): 2.87 µM
Cc1ccc2c(c1)C1CN(C)CCC1N2C(=O)c1cc2c(s1)CCCC2 (stereo not given) | > 10 | IC50 (PBLUC_HILL_SLOPE 0.917, 1.13, PBLUC_R_SQUARED 0.241, 0.572, read-out: LUCIFERASE INFECTION ASSAY - IC50): 2.93 µM
